The target in the test is CpOGA (Clostridium perfringens, UniProt Q0TR53). The following applies: read-out: Michaelis constant (KM) of glycopeptide substrate for CpOGA; pH 7.4.
Consider “PVSVPYS(O-GlcNAc)SAQSTS [TAB1 (Ser395) 13]”, for which the Km (as a rule, the concentration of substrate that gives half-maximal velocity) is 36 ± 1 µM.

Turning to “p53 (Ser149) 11: 11-residue O-GlcNAc glycopeptide derived from p53 Ser149 site”, the Michaelis-Menten constant (Km) was 2.9 ± 0.4 µM. The same measure for VAHS(O-GlcNAc)GAK [hOGA (Ser405) 7]: 40 ± 10 µM.

The values above are taken from paper PMC3476531, “Synergy of Peptide and Sugar in O-GlcNAcase Substrate Recognition” (Chemistry & Biology, 2012).
